The values that follow come from patent US12428406B2 (PMV Pharmaceuticals, Inc., priority 2019, dated 2025).

This test deals with T1, p53 Y220C (Homo sapiens, UniProt P04637, Y220C).
T1 construct: The recombinant protein was a truncation mutant containing only amino acids 94-312 of p53; made in house; host or cells: E. coli
T1 sequence (P04637 94-312, change not shown): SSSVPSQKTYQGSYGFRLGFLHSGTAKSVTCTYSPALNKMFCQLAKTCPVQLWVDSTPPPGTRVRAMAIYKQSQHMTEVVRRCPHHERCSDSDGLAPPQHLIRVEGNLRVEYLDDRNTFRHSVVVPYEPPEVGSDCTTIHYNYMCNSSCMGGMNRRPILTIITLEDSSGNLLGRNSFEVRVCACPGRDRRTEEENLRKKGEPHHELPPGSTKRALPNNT
Nature of the test: In vitro DNA binding activity assay (HTRF / TR-FRET): stabilization of p53 Y220C and increase of its DNA binding activity. It is filed as biochemical. The following applies: recombinant His-tagged p53 Y220C DNA binding domain (aa 94-312), biotin-labeled consensus DNA, incubated at 27° C. or 29° C. for 60 min. An outline of the steps:
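Compound effect on DNA binding of recombinant His-p53 Y220C (E. coli) to biotin-labeled consensus DNA, expressed as SC150, the concentration giving 50% increase versus untreated. Serial 3-fold DMSO dilutions of 4.5 mM stocks; room-temperature steps of 15 then 20 min.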
For the compound `COCC(O)CN1CCC(Nc2cccc3c2cc(C#CCNc2cc(F)c(C(N)=O)cc2OC)n3CC(F)(F)F)CC1` (stereo not shown) [Compound 683A, 2-fluoro-4-{[3-(4-{[1-(2-hydroxy-3-methoxypropyl)piperidin-4-yl]amino}-1-(2,2,2-trifluoroethyl)-1H-indol-2-yl)prop-2-yn-1-yl]amino}-5-methoxybenzamide], the “SC150 (concentration of the compound required to increase the DNA binding activity by 50%)” value is recorded as “+ (+ = 0 μM ≤ SC150 < 0.05 μM)”.

Take `COCC(O)CN1CCC(Nc2cccc3c2cc(C#CCNc2ccc(S(=O)(=O)C4CC4)cc2OC)n3CC(F)(F)F)CC1` (stereo not shown) [Compound 685A, 1-(4-{[2-(3-{[4-(cyclopropanesulfonyl)-2-methoxyphenyl]amino}prop-1-yn-1-yl)-1-(2,2,2-trifluoroethyl)-1H-indol-4-yl]amino}piperidin-1-yl)-3-methoxypropan-2-ol]: the “SC150 (concentration of the compound required to increase the DNA binding activity by 50%)” value was “+ (+ = 0 μM ≤ SC150 < 0.05 μM)”.

On to `COc1cc(S(C)(=O)=O)ccc1NCC#Cc1cc2c(NC3CCN(CCC#N)CC3)cccc2n1CC(F)(F)F` [Compound 686A], for which the “SC150 (concentration of the compound required to increase the DNA binding activity by 50%)” value was “+ (+ = 0 μM ≤ SC150 < 0.05 μM)”.

With `COc1cc(S(C)(=O)=O)ccc1NCC#Cc1cc2c(NC3CCN(CC4CCCO4)CC3)cccc2n1CC(F)(F)F` (stereo not shown) [Compound 688A, 2-{3-[(4-methanesulfonyl-2-methoxyphenyl)amino]prop-1-yn-1-yl}-N-{1-[(oxolan-2-yl)methyl]piperidin-4-yl}-1-(2,2,2-trifluoroethyl)-1H-indol-4-amine], the “SC150 (concentration of the compound required to increase the DNA binding activity by 50%)” value was “+ (+ = 0 μM ≤ SC150 < 0.05 μM)”.

Turning to `COCC(O)CN1CCC(Nc2cccc3c2cc(C#CCNc2ccc(C(F)(F)F)cc2OC)n3CC(F)(F)F)CC1` (stereo not shown) [Compound 689A, 1-methoxy-3-(4-{[2-(3-{[2-methoxy-4-(trifluoromethyl)phenyl]amino}prop-1-yn-1-yl)-1-(2,2,2-trifluoroethyl)-1H-indol-4-yl]amino}piperidin-1-yl)propan-2-ol], the “SC150 (concentration of the compound required to increase the DNA binding activity by 50%)” value is recorded as “+++ (+++ = 0.1 μM ≤ SC150 < 0.2 μM)”.

As to `CNC(=O)c1cc(OC)c(NCC#Cc2cc3c(NC4CCN(CC(O)COC)CC4)cccc3n2CC(F)(F)F)cc1F` (stereo not shown) [Compound 690A, 2-fluoro-4-{[3-(4-{[1-(2-hydroxy-3-methoxypropyl)piperidin-4-yl]amino}-1-(2,2,2-trifluoroethyl)-1H-indol-2-yl)prop-2-yn-1-yl]amino}-5-methoxy-N-methylbenzamide], the “SC150 (concentration of the compound required to increase the DNA binding activity by 50%)” value is recorded as “+ (+ = 0 μM ≤ SC150 < 0.05 μM)”.

On to `COCC(O)CN1CCC(Nc2cccc3c2cc(C#CCNc2ccc(S(=O)(=O)c4ccccc4)cc2OC)n3CC(F)(F)F)CC1` (stereo not shown) [Compound 691A, 1-(4-{[2-(3-{[4-(benzenesulfonyl)-2-methoxyphenyl]amino}prop-1-yn-1-yl)-1-(2,2,2-trifluoroethyl)-1H-indol-4-yl]amino}piperidin-1-yl)-3-methoxypropan-2-ol], for which the “SC150 (concentration of the compound required to increase the DNA binding activity by 50%)” value is recorded as “+ (+ = 0 μM ≤ SC150 < 0.05 μM)”.

With `COc1cc(S(C)(=O)=O)ccc1NCC#Cc1cc2c(NC3CCN(CC(C)(C)OC)CC3)cccc2n1CC(F)(F)F` [Compound 692A, 2-{3-[(4-methanesulfonyl-2-methoxyphenyl)amino]prop-1-yn-1-yl}-N-[1-(2-methoxy-2-methylpropyl)piperidin-4-yl]-1-(2,2,2-trifluoroethyl)-1H-indol-4-amine], the “SC150 (concentration of the compound required to increase the DNA binding activity by 50%)” value is “+ (+ = 0 μM ≤ SC150 < 0.05 μM)”.

Regarding `COCC(O)CN1CCC(Nc2cccc3c2cc(C#CCNc2ccc(S(=O)(=O)C(C)C)cc2OC)n3CC(F)(F)F)CC1` (stereo not shown) [Compound 694A, 1-methoxy-3-(4-{[2-(3-{[2-methoxy-4-(propane-2-sulfonyl)phenyl]amino}prop-1-yn-1-yl)-1-(2,2,2-trifluoroethyl)-1H-indol-4-yl]amino}piperidin-1-yl)propan-2-ol], the “SC150 (concentration of the compound required to increase the DNA binding activity by 50%)” value was “+ (+ = 0 μM ≤ SC150 < 0.05 μM)”.

For `COCC(O)CN1CCCC(Nc2cccc3c2cc(C#CCNc2ccc(S(C)(=O)=O)cc2OC)n3CC(F)(F)F)C1` (stereo not shown) [Compound 695A, 1-{3-[(2-{3-[(4-methanesulfonyl-2-methoxyphenyl)amino]prop-1-yn-1-yl}-1-(2,2,2-trifluoroethyl)-1H-indol-4-yl)amino]piperidin-1-yl}-3-methoxypropan-2-ol], the “SC150 (concentration of the compound required to increase the DNA binding activity by 50%)” value is reported as “+ (+ = 0 μM ≤ SC150 < 0.05 μM)”.

`CCCn1c(C#CCNc2ccc(S(C)(=O)=O)cc2OC)cc2c(NC3CCN(CC(O)COC)CC3)cccc21` (stereo not shown) [Compound 697A, 1-{4-[(2-{3-[(4-methanesulfonyl-2-methoxyphenyl)amino]prop-1-yn-1-yl}-1-propyl-1H-indol-4-yl)amino]piperidin-1-yl}-3-methoxypropan-2-ol]: the “SC150 (concentration of the compound required to increase the DNA binding activity by 50%)” value is “+ (+ = 0 μM ≤ SC150 < 0.05 μM)”.

As to `COCC(O)CN1CCC(Nc2cccc3c2cc(C#CCNc2ccc(S(C)(=O)=O)cc2OC)n3CCF)CC1` (stereo not shown) [Compound 698A, 1-(4-{[1-(2-fluoroethyl)-2-{3-[(4-methanesulfonyl-2-methoxyphenyl)amino]prop-1-yn-1-yl}-1H-indol-4-yl]amino}piperidin-1-yl)-3-methoxypropan-2-ol], the “SC150 (concentration of the compound required to increase the DNA binding activity by 50%)” value is on record as “+ (+ = 0 μM ≤ SC150 < 0.05 μM)”.

`COCC(O)CN1CCC(Nc2cccc3c2cc(C#CCNc2ccc(S(C)(=O)=O)cc2OC)n3CC#N)CC1` (stereo not shown) [Compound 699A, 2-(4-{[1-(2-hydroxy-3-methoxypropyl)piperidin-4-yl]amino}-2-{3-[(4-methanesulfonyl-2-methoxyphenyl)amino]prop-1-yn-1-yl}-1H-indol-1-yl)acetonitrile]: the “SC150 (concentration of the compound required to increase the DNA binding activity by 50%)” value is recorded as “+ (+ = 0 μM ≤ SC150 < 0.05 μM)”.

With `COCC(O)CN1CCC(Nc2cccc3c2cc(C#CCNc2ccc(S(C)(=O)=O)cc2OC)n3CCCl)CC1` (stereo not shown) [Compound 700A, 1-(4-{[1-(2-chloroethyl)-2-{3-[(4-methanesulfonyl-2-methoxyphenyl)amino]prop-1-yn-1-yl}-1H-indol-4-yl]amino}piperidin-1-yl)-3-methoxypropan-2-ol], the “SC150 (concentration of the compound required to increase the DNA binding activity by 50%)” value is “+ (+ = 0 μM ≤ SC150 < 0.05 μM)”.

Turning to `COCC(O)CN1CCC(Nc2cccc3c2cc(C#CCNc2ccc(S(C)(=O)=O)cc2C)n3CC(F)(F)F)CC1` (stereo not shown) [Compound 703A, 1-{4-[(2-{3-[(4-methanesulfonyl-2-methylphenyl)amino]prop-1-yn-1-yl}-1-(2,2,2-trifluoroethyl)-1H-indol-4-yl)amino]piperidin-1-yl}-3-methoxypropan-2-ol], the “SC150 (concentration of the compound required to increase the DNA binding activity by 50%)” value is reported as “+ (+ = 0 μM ≤ SC150 < 0.05 μM)”.

Regarding `COCC(O)CN1CCC(Nc2cccc3c2cc(C#CCNc2ccc(S(C)(=O)=O)cc2OC)n3CC2CC2(F)F)CC1` (stereo not shown) [Compound 704A, 1-[4-({1-[(2,2-difluorocyclopropyl)methyl]-2-{3-[(4-methanesulfonyl-2-methoxyphenyl)amino]prop-1-yn-1-yl}-1H-indol-4-yl}amino)piperidin-1-yl]-3-methoxypropan-2-ol], the “SC150 (concentration of the compound required to increase the DNA binding activity by 50%)” value was “++ (++ = 0.05 μM ≤ SC150 < 0.1 μM)”.

For the compound `COCC(O)CN1CCC(Nc2cccc3c2cc(C#CCNc2ccc(C(=O)O)cc2OC)n3CC(F)(F)F)CC1` (stereo not shown) [Compound 705A, 4-{[3-(4-{[1-(2-hydroxy-3-methoxypropyl)piperidin-4-yl]amino}-1-(2,2,2-trifluoroethyl)-1H-indol-2-yl)prop-2-yn-1-yl]amino}-3-methoxybenzoic acid], the “SC150 (concentration of the compound required to increase the DNA binding activity by 50%)” value is given as “+ (+ = 0 μM ≤ SC150 < 0.05 μM)”.

Consider `COc1cc(S(C)(=O)=O)ccc1NCC#Cc1cc2c(NC3CCN(CCCS(C)(=O)=O)CC3)cccc2n1CC(F)(F)F` [Compound 706A, 2-{3-[(4-methanesulfonyl-2-methoxyphenyl)amino]prop-1-yn-1-yl}-N-[1-(3-methanesulfonylpropyl)piperidin-4-yl]-1-(2,2,2-trifluoroethyl)-1H-indol-4-amine], for which the “SC150 (concentration of the compound required to increase the DNA binding activity by 50%)” value is reported as “+ (+ = 0 μM ≤ SC150 < 0.05 μM)”.

As for `COc1cc(C(=O)O)ccc1NCC#Cc1cc2c(NC3CCN(CCCS(C)(=O)=O)CC3)cccc2n1CC(F)(F)F` [Compound 707A, 4-{[3-(4-{[1-(3-methanesulfonylpropyl)piperidin-4-yl]amino}-1-(2,2,2-trifluoroethyl)-1H-indol-2-yl)prop-2-yn-1-yl]amino}-3-methoxybenzoic acid], the “SC150 (concentration of the compound required to increase the DNA binding activity by 50%)” value is on record as “+ (+ = 0 μM ≤ SC150 < 0.05 μM)”.

Regarding `COCC(O)CN1CCC(Nc2cccc3c2cc(C#CCNc2ccc(S(C)(=O)=O)cc2C(F)(F)F)n3CC(F)(F)F)CC1` (stereo not shown) [Compound 708A, 1-(4-{[2-(3-{[4-methanesulfonyl-2-(trifluoromethyl)phenyl]amino}prop-1-yn-1-yl)-1-(2,2,2-trifluoroethyl)-1H-indol-4-yl]amino}piperidin-1-yl)-3-methoxypropan-2-ol], the “SC150 (concentration of the compound required to increase the DNA binding activity by 50%)” value was “++ (++ = 0.05 μM ≤ SC150 < 0.1 μM)”.

`COCC(O)CN1CCC(Nc2cccc3c2cc(C#CCNc2ccc(S(C)(=O)=O)cc2OC)n3CC(F)F)CC1` (stereo not shown) [Compound 709A, 1-(4-{[1-(2,2-difluoroethyl)-2-{3-[(4-methanesulfonyl-2-methoxyphenyl)amino]prop-1-yn-1-yl}-1H-indol-4-yl]amino}piperidin-1-yl)-3-methoxypropan-2-ol]: the “SC150 (concentration of the compound required to increase the DNA binding activity by 50%)” value is reported as “+ (+ = 0 μM ≤ SC150 < 0.05 μM)”.

Turning to `COCC(O)CN1CCC(Nc2cccc3c2cc(C#CCNc2ccc(S(C)(=O)=O)cc2OC(F)(F)F)n3CC(F)(F)F)CC1` (stereo not shown) [Compound 710A, 1-(4-{[2-(3-{[4-methanesulfonyl-2-(trifluoromethoxy)phenyl]amino}prop-1-yn-1-yl)-1-(2,2,2-trifluoroethyl)-1H-indol-4-yl]amino}piperidin-1-yl)-3-methoxypropan-2-ol], the “SC150 (concentration of the compound required to increase the DNA binding activity by 50%)” value is on record as “+ (+ = 0 μM ≤ SC150 < 0.05 μM)”.
